Like-named read-outs stand apart in the source and are kept apart here.
How the values were obtained:
P. aeruginosa (PA20) = experiment: Rabbit infective endocarditis model (Tables 28-32, FIGS. 5-8); format: in vivo, Pseudomonas aeruginosa in rabbits; conditions: Meropenem 5 mg/kg
Protocol: Initially, a polyethylene catheter was placed into the rabbits' right ventricle and secured. 48 hours after catheter placement, rabbits were infected intravenously with P. aeruginosa (PA20) (6×10^9 CFU/mL). Treatment commenced 24 hours post-infection.
Data were analyzed using the Kruskal-Wallis method for multiple comparison and then adjusted with a false discovery rate approach (Benjamini-Hochberg method), using StatsDirect Software. A p-value of <0.05 was considered statistically significant.

[1] = tested on: 15 P. aeruginosa isolates; experiment: MIC of GN370 in dog, human, rabbit and rat serum and CAAT; meropenem in CAMHB (Table 33); format: cell-based, Pseudomonas aeruginosa; conditions: Pseudomonas aeruginosa, CAMHB
[2] = tested on: P. aeruginosa isolate CFS 1558 (PA20); format: in vivo
Protocol: A rabbit pulmonary model was used to assess the efficacy of the GN370 lysin alone and in combination with an antibiotic (meropenem). Initially, rabbits were infected intratracheally with P. aeruginosa isolate CFS 1558 (PA20) (3×10^9 CFU). Treatment commenced 6 hours post-infection.

P. aeruginosa strains = experiment: Checkerboard synergy with meropenem in 25% CAA and […] human serum (Table 16); format: cell-based, Pseudomonas aeruginosa; conditions: for FICI value (Run #1), with meropenem / FICI value (Run #2), with meropenem: 25% CAA and […] human serum
[3] = tested on: Pseudomonas aeruginosa biofilm; experiment: MBEC in CAA supplemented with […] human serum (Table 14); format: cell-based
Protocol: Biofilms are then washed and treated with e.g., a 2-fold dilution series of the lysin in TSBg at e.g., 37° C. for 24 hours. After treatment, wells are washed, air-dried at e.g., 37° C. and stained with e.g., 0.05% crystal violet for 10 minutes.
Materials and methods: MICs were determined by broth microdilution in media supplemented with human serum and pulmonary surfactant ([…]®; Myoderm Clinical Supplies). Minimal biofilm eradicating concentrations (MBECs) were determined using standard methods. […] Fluorescence microscopy was performed after LIVE/DEAD staining (ThermoFisher) and TEM was performed.

## C[C@@H](O)[C@H]1C(=O)N2C(C(=O)O)=C(S[C@@H]3CN[C@H](C(=O)N(C)C)C3)[C@H](C)[C@H]12 [Meropenem, meropenem, reference compound]
P. aeruginosa (PA20); cardiac vegetation
  Bacterial burden, Mean: 7.22 log10 CFU/g
  Mean log10 CFU change v. 24 hr control: −0.68 log10 CFU
  Mean log10 CFU change v. vehicle: −0.13 log10 CFU
P. aeruginosa (PA20); kidney tissue
  Bacterial burden, Mean: 4.64 log10 CFU/g
  Mean log10 CFU change v. 24 hr control: −1.32 log10 CFU
  Mean log10 CFU change v. vehicle: −0.55 log10 CFU
P. aeruginosa (PA20); lung tissue
  Bacterial burden, Mean: 3.75 log10 CFU/g
  Mean log10 CFU change v. 24 hr control: −1.41 log10 CFU
  Mean log10 CFU change v. vehicle: −1.25 log10 CFU
P. aeruginosa (PA20); spleen tissue
  Bacterial burden, Mean: 3.95 log10 CFU/g
  Mean log10 CFU change v. 24 hr control: −1.00 log10 CFU
  Mean log10 CFU change v. vehicle: −1.62 log10 CFU
[1]; ATCC25668, read-out: MIC Meropenem, strain ATCC 25668
  MIC: 2 µg/mL
[1]; ATCC27853, read-out: MIC Meropenem, strain ATCC 27853
  MIC: 0.5 µg/mL
[1]; PA1, read-out: MIC Meropenem, strain PA1
  MIC: 32 µg/mL
[1]; read-out: MIC Meropenem, strain AR0231
  MIC: 128 µg/mL
[1]; read-out: MIC Meropenem, strain AR0241
  MIC: > 256 µg/mL
[1]; read-out: MIC Meropenem, strain AR0246
  MIC: 32 µg/mL
[1]; read-out: MIC Meropenem, strain PA2
  MIC: 16 µg/mL
[1]; read-out: MIC Meropenem, strain PA3
  MIC: 8 µg/mL
[1]; read-out: MIC Meropenem, strain PA19
  MIC: 32 µg/mL
[1]; read-out: MIC Meropenem, strain PA20
  MIC: 32 µg/mL
[1]; read-out: MIC Meropenem, strain PA22
  MIC: 16 µg/mL
[1]; read-out: MIC Meropenem, strain PA23
  MIC: 16 µg/mL
[1]; read-out: MIC Meropenem, strain PA24
  MIC: > 32 µg/mL
[1]; read-out: MIC Meropenem, strain PA27
  MIC: 1 µg/mL
[1]; read-out: MIC Meropenem, strain PA453
  MIC: 64 µg/mL
[2]; agent alone, compared to the starting CFU and the vehicle control group
  decrease of mean bacterial density in lungs: about 2 log10 CFU/g
[2]; meropenem 20 mg/kg
  Bacterial burden, Kidneys: 3.92 ± 0.63 log10 CFU/g
  Bacterial burden, Lung 1: 5.80 ± 0.88 log10 CFU/g
  Bacterial burden, Lung 2: 5.98 ± 1.14 log10 CFU/g
  Bacterial burden, Spleen: 3.62 ± 0.21 log10 CFU/g
[2]; rabbit lung, Meropenem 20 mg/kg
  Log10 CFU/g of vegetation: 6.12 ± 0.89 Log10 CFU/g

B1: GN121: variant lysin (SEQ ID NO: 175), also disclosed in WO 2019/118632 (protein)
chain: MTYTLSKRSLDNLKGVHPDLVAVVHRAIQLTPVDFAVIEGLRSVSRQKELVAAGASKTMNSRHLTGHAVDLAAYVNGIRWDWPLYDAIAVAVKAAAKELGVAIVWGGDWTTFKDGPHFELDRSKYRRKKTRKRLKKIGKVLKWI
P. aeruginosa strains; FICI less than or equal to 0.5 = potent synergy
  synergy with meropenem: exhibited synergy with meropenem
P. aeruginosa strains; strain CFS 1292
  FICI value (Run #1), with meropenem: 0.25
  FICI value (Run #2), with meropenem: 0.292
P. aeruginosa strains; strain CFS 1557 (PA19)
  FICI value (Run #1), with meropenem: 0.375
  FICI value (Run #2), with meropenem: 0.427
P. aeruginosa strains; strain CFS 1558 (PA20)
  FICI value (Run #1), with meropenem: 0.125
  FICI value (Run #2), with meropenem: 0.156
P. aeruginosa strains; strain CFS 1559 (PA21)
  FICI value (Run #2), with meropenem: 0.229
P. aeruginosa strains; strain CFS 1560 (PA22)
  FICI value (Run #2), with meropenem: 0.313
P. aeruginosa strains; strain CFS 1561 (PA23)
  FICI value (Run #2), with meropenem: 0.198
P. aeruginosa strains; strain CFS 1562 (PA24)
  FICI value (Run #2), with meropenem: 0.214
P. aeruginosa strains; strain CFS 1766 (ATCC 27853)
  FICI value (Run #2), with meropenem: 0.229
[3]
  MBEC in CAA supplemented with […] human serum: 0.25 µg/mL
